Laboratory results published in US6214581A, “Nucleic acids encoding a functional human purinoreceptor P2X3 and P2X6, and methods of production and use thereof” (Abbott Laboratories, priority 1998, dated 2001).
Where two headings read alike, the source gives them in different places.

Assays:
[1] = molecular target: T1, human P2X3 receptors (Homo sapiens, UniProt P56373); assay: Two-electrode voltage-clamp of Xenopus oocytes expressing recombinant human P2X3 receptor; type: cell-based; conditions: for rank order potency: extracellular P2 receptor agonists; for rank order potency / block of P2X3 receptors: summary; for block of ATP-induced currents: ATP 0.3 μM, antagonist superfused at least 3 minutes before agonist; for block of P2X3 receptors: P2 receptor antagonists
T1 construct: expressed in transfected cells; host or cells: Xenopus laevis oocytes (nuclear injection of the P2X3 insert in pCDNA3.1)
T1 sequence (P56373 1-397): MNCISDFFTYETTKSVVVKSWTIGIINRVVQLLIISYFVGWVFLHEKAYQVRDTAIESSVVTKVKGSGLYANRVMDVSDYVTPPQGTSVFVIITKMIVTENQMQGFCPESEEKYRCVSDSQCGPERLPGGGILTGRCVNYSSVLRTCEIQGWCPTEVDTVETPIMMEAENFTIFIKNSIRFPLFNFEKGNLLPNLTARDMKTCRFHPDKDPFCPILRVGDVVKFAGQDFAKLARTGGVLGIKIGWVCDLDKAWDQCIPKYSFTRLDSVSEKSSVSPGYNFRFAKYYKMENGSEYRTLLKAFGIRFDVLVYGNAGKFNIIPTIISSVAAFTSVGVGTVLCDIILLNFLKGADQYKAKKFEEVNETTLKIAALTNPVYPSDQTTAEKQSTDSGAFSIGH
Description: Responses were measured at a holding potential of -60 mV in modified Barth's solution containing 10 mM BaCl2 and lacking CaCl2 and MgCl2 (final pH 7.4). However, in some experiments, the cell potential was intentionally varied in order to determine the response current-voltage relationship. Agonist was applied briefly using a computer-controlled solenoid valve and a push/pull applicator positioned to within 200-400 μm from the oocyte. Responses were recorded by computer in synchrony with agonist application. Antagonists were included with agonist in the push/pull applicator and were applied to the bath by superfusion for at least 3 minutes before application of agonist. Responses were quantified by measuring the peak amplitude.
The clone was grown up and prepared in large scale using the QIAgen maxiprep DNA preparation system according to the manufacturer's instructions. T he DNA was ethanol precipitated and resuspended in TE buffer. For RNA production, the P2X3 -pCDNA3.1 construct was linearized by digestion with the restriction enzyme NotI and P2X3 messenger RNA was produced using the T7 promoter in this vector and the Ambion mMessage mMachine™ in vitro transcription kit according to the manufacturer's instructions.
For functional anaysis of human P2X3 receptors, 10 ng of human P2X3 DNA prepared as described above were injected into the nucleus of Xenopus oocytes. Oocytes were incubated in normal Barth's solution containing 100 μg/ml gentamicin for 2-7 days following injection. The response to 10 μM ATP was then recorded.

[2] = system: P2X receptors on dorsal root ganglion nerve terminals in the spinal cord; conditions: ATP-induced activation of P2X receptors on dorsal root ganglion nerve terminals; cited from earlier work
[3] = system: P2X4 receptor; conditions: cited from earlier work
[4] = system: P2X6 receptor; conditions: cited from earlier work
[5] = system: P2X1; conditions: cited from earlier work
[6] = system: P2X2; conditions: cited from earlier work

CSc1nc(N)c2ncn([C@@H]3O[C@H](COP(=O)(O)OP(=O)(O)OP(=O)(O)O)[C@@H](O)[C@H]3O)c2n1 [2-methylthio-ATP]
EC50 ([1]; concentration-response, agonist, human P2X3 in Xenopus oocytes, ATP 0.01-1000 μM, read-out: EC50): 400 nM | rank order potency [1]: 2-methylthio-ATP>ATP>α,β-methylene-ATP

Nc1ncnc2c1ncn2[C@@H]1O[C@H](COP(=O)(O)OP(=O)(O)OP(=O)(O)O)[C@@H](O)[C@H]1O [ATP]
EC50 [1]: ~700 nM | reversal potential ([1]; ATP-induced current-voltage relationships): approximately zero | current-voltage rectification ([1]; ATP-induced, negative membrane potentials): pronounced inward rectification | mixed-conductance cation current ([1]; extracellular ATP (10 μM), holding potential -60 mV, oocytes injected with human P2X3 DNA): 100-6000 nA | rank order potency [1]: 2-methylthio-ATP>ATP>α,β-methylene-ATP | release of glutamate [2]: stimulates the release of glutamate

Cc1nc(N=Nc2ccc(S(=O)(=O)O)cc2S(=O)(=O)O)c(COP(=O)(O)O)c(C=O)c1O [PPADS, pyridoxal-phosphate-6-azophenyl-2',4'-disulfonic acid]
block of ATP-induced currents [1]: complete block | block of P2X3 receptors [1]: blocked | block of P2X4 receptor [3]: cannot be blocked | block of P2X6 receptor [4]: cannot be blocked

Cc1ccc(C(=O)Nc2ccc(S(=O)(=O)O)c3cc(S(=O)(=O)O)cc(S(=O)(=O)O)c23)cc1NC(=O)c1cccc(NC(=O)Nc2cccc(C(=O)Nc3cc(C(=O)Nc4ccc(S(=O)(=O)O)c5cc(S(=O)(=O)O)cc(S(=O)(=O)O)c45)ccc3C)c2)c1 [suramin]
block of ATP-induced currents [1]: complete block | block of P2X3 receptors [1]: blocked | block of P2X4 receptor [3]: cannot be blocked | block of P2X6 receptor [4]: cannot be blocked

Nc1ncnc2c1ncn2[C@@H]1O[C@H](COP(=O)(O)CP(=O)(O)OP(=O)(O)O)[C@@H](O)[C@H]1O [α,β-methylene-ATP]
EC50 [1]: 2100 nM | rank order potency [1]: 2-methylthio-ATP>ATP>α,β-methylene-ATP | activation of P2X4 receptor ([3]; agonist): not activated | activation of P2X6 receptor ([4]; agonist): not activated | sensitivity of P2X1 to agonist [5]: sensitive | sensitivity of P2X2 to agonist [6]: insensitive
